Experimental data reported in EP4603105A1, “PHARMACEUTICAL COMPOSITION CONTAINING CYCLIC COMPOUND HAVING SELECTIVE KRAS INHIBITORY EFFECT AGAINST HRAS AND NRAS” (CHUGAI SEIYAKU KABUSHIKI KAISHA, priority 2022, dated 2024).
Where a SMILES comes first, the peptide text is derived from it. Bridges are numbered along the chain shown (N, C = ends). [ ]: non-standard residue; d: D form. The star is where a group is joined. hPhe(3,5-F2-4-CF3) = N[C@@H](CCc1cc(F)c(C(F)(F)F)c(F)c1)C(=O)O; NPrPhe(4-CF3) = CCCN[C@@H](Cc1ccc(C(F)(F)F)cc1)C(=O)O; NMeGly(cPent) = CN[C@H](C(=O)O)C1CCCC1; Nva(3-Et) = CCC(CC)[C@H](N)C(=O)O; NMeD = CN[C@@H](CC(=O)O)C(=O)O; NMeL = CN[C@@H](CC(C)C)C(=O)O; Morpholide = C1CN(*)CCO1; Ac5c = NC1(C(=O)O)CCCC1; Aze = O=C(O)[C@@H]1CCN1; Sar = CNCC(=O)O

Legend:
HRAS wild-type protein = HRAS wild-type protein (Homo sapiens, UniProt P01112); assay: Binding to HRAS by surface plasmon resonance (SPR), KD and KD ratio to KRAS
Chain of HRAS wild-type protein (P01112 whole entry): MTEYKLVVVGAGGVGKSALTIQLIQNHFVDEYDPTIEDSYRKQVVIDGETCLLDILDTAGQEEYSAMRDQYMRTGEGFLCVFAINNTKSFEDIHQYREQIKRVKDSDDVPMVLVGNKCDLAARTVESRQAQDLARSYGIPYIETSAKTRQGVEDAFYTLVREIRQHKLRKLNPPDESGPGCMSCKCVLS
How it was run: (§1)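 Recombinant RAS proteins bearing a biotinylated Avi tag and loaded with GDP served as the captured ligand, recaptured fresh every cycle. Binding responses were referenced to an uncoated surface and a buffer-only blank cycle. Dissociation constants were obtained by 1:1 model fitting at 30°C.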

[1] = target: GDP-bound NRAS wild-type protein (Homo sapiens, UniProt P01111); assay: Binding to NRAS by surface plasmon resonance (SPR), KD and KD ratio to KRAS
Chain of GDP-bound NRAS wild-type protein (P01111 whole entry): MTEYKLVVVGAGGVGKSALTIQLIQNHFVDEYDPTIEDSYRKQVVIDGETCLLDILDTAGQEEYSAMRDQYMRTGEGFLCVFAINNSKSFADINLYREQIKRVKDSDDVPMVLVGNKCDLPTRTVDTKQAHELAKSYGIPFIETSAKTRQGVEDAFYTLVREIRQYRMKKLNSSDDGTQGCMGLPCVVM
How it was run: as §1

[2] = tested on: human lung cancer strain NCI-H441; format: cell-based
How it was run: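 Signal came from […] measured per well once the reagent was added. Beforehand, cells were cultured at 37°C and 5% carbon dioxide on a compound series serially diluted in dimethyl sulfoxide.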

[3] = target: GDP-bound KRAS wild-type protein (Homo sapiens, UniProt P01116); assay: Binding to KRAS by surface plasmon resonance (SPR), dissociation constant KD
Chain of GDP-bound KRAS wild-type protein (P01116 1-188 isoform P01116-2): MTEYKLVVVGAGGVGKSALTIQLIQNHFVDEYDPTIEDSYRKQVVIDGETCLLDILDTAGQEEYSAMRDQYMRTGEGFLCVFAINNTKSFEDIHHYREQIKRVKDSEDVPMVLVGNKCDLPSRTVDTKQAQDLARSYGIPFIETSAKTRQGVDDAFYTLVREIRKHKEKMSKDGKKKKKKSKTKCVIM
How it was run: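 GDP-bound biotin-Avi RAS captured at ~100–300 RU, 30°C, pH 7.4 HBS containing 10 µM GDP, 10 mM MgCl2, 1 mM DTT, 0.01% Tween 20 and 4% DMSO. KD by 1:1 fitting.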

[4] = ratio of KD for HRAS wild-type protein to KD for KRAS
[5] = ratio of KD for GDP-bound NRAS wild-type protein to KD for KRAS
[6] = ratio of KD value for HRAS wild-type protein to KD value for KRAS (SPR)
[7] = ratio of KD value for GDP-bound NRAS wild-type protein to KD value for KRAS (SPR)
[8] = Single Cycle Kinetics, 1:1 binding model

Row | IC50 [2] [nM] | Kd ([3]; 1:1 binding model) [nM] | Kd [3, 8] [nM] | Kd ([3]; Single Cycle Kinetics) [nM] | Compound | HRAS /KRAS (HRAS wild-type protein; [4]) | NRAS /KRAS [1, 5] | HRAS /KRAS (HRAS wild-type protein; [6]) | NRAS /KRAS [1, 7] | HRAS /KRAS (HRAS wild-type protein; ratio of the KD value with respect to HRAS wild-type protein to the KD value with respect to KRAS) | NRAS /KRAS ([1]; ratio of the KD value with respect to GDP-bound NRAS wild-type protein to the KD value with respect to KRAS)
1 | 39 | 1.1 |  |  | CCCC[C@H]1C(=O)N[C@@H]([C@@H](C)CC)C(=O)N(C)CC(=O)N(C)[C@H]2C/C=C\CCN(C2=O)[C@@H](Cc2ccc(C(F)(F)F)cc2)C(=O)N(C)CC(=O)N[C@@H](CCc2ccc(C(F)(F)F)cc2Cl)C(=O)N2C[C@H](F)C[C@H]2C(=O)NC2(CC(C)(C)C2)C(=O)N(C)[C@@H](C2CCC2)C(=O)N(C)[C@H](C(=O)N(C)C)CC(=O)N1C [PP3124] | A (a compound having 10 or more and less than 20 is denoted as A) | A (a compound having 10 or more and less than 20 is denoted as A) |  |  |  | 
2 | 3.7 |  | 0.042 |  | CC[C@H](C)[C@@H]1NC(=O)[C@H](CC(C)C)N(C)C(=O)C[C@@H](C(=O)N(C)C)N(C)C(=O)[C@H](C2CCCC2)N(C)C(=O)C2(CCC2)N(C)C(=O)[C@@H]2CCCN2C(=O)[C@H](CCc2cc(F)c(C(F)(F)F)c(F)c2)NC(=O)CN(C)C(=O)[C@H](Cc2ccc(C)cc2)N2CC/C=C\C[C@@H](C2=O)N(C)C(=O)CN(C)C1=O [PP1791] |  |  | A (a compound having 10 or more and less than 20 is denoted as A) | A (a compound having 10 or more and less than 20 is denoted as A) |  | 
3 | 5.5 |  | 0.063 |  | CCO[C@@H]1C[C@H]2C(=O)NC3(CC(C)(C)C3)C(=O)N(C)[C@@H](C3CCCC3)C(=O)N(C)[C@H](C(=O)N(C)C)CC(=O)N(C)[C@@H](CC3CC3)C(=O)N[C@@H]([C@@H](C)CC)C(=O)N(C)CC(=O)N(C)[C@H]3C/C=C\CCN(C3=O)[C@@H](Cc3ccc(C)cc3)C(=O)N(C)CC(=O)N[C@@H](CCc3ccc(C(F)(F)F)c(OC)c3)C(=O)N2C1 [PP1903] |  |  |  |  | B (a compound having 3 or more and less than 10 is denoted as B) | A (a compound having 10 or more and less than 20 is denoted as A)
4 | 599 |  |  | 2.9 | CCO[C@@H]1C[C@H]2C(=O)NC3(CCC3)C(=O)N(C)[C@@H](C3CCCC3)C(=O)N(C)[C@H](C(=O)N(C)C)CC(=O)N(C)[C@@H](CC)C(=O)N[C@@H]([C@@H](C)CC)C(=O)N3CCCC[C@H]3C(=O)N(C)[C@H]3C/C=C\CCN(C3=O)[C@@H](Cc3ccc(C(F)(F)F)cc3)C(=O)N(C)CC(=O)N[C@@H](CCc3cc(F)c(C(F)(F)F)c(F)c3)C(=O)N2C1 [PP1058] | B (a compound having 3 or more and less than 10 is denoted as B) | A (a compound having 10 or more and less than 20 is denoted as A) |  |  |  | 
5 | 48.8 |  | 0.71 |  | CCO[C@@H]1C[C@H]2C(=O)NC3(CC(C)(C)C3)C(=O)N(C)[C@@H](C3CCCC3)C(=O)N(C)[C@@H](C(C)C)CC(=O)N(C)[C@@H](CC3CC3)C(=O)N[C@@H]([C@@H](C)CC)C(=O)N(C)CC(=O)N(C)[C@H]3C/C=C\CCN(C3=O)[C@@H](Cc3ccc(C(F)(F)F)cc3)C(=O)N(C)CC(=O)N[C@@H](CCc3cc(F)c(C(F)(F)F)c(F)c3)C(=O)N2C1 [PP1594] |  |  | A (a compound having 10 or more and less than 20 is denoted as A) | A (a compound having 10 or more and less than 20 is denoted as A) |  | 
6 | 324 |  |  | 3 | CCCN1C(=O)CN(C)C(=O)[C@@H]2CCN2C(=O)[C@H](C(CC)CC)NC(=O)[C@H](CC(C)C)N(C)C(=O)C[C@@H](C(=O)N2CCOCC2)N(C)C(=O)[C@H](C2CCCC2)N(C)C(=O)C2(CCCC2)NC(=O)[C@@H]2CCCN2C(=O)[C@H](CCc2cc(F)c(C(F)(F)F)c(F)c2)NC(=O)CN(C)C(=O)[C@@H]1Cc1ccc(C(F)(F)F)cc1 [PP0785] ([NMeL][Nva(3-Et)][Aze][Sar][NPrPhe(4-CF3)][Sar][hPhe(3,5-F2-4-CF3)]P[Ac5c][NMeGly(cPent)][NMeD]-Morpholide; lactam N-11) | B (a compound having 3 or more and less than 10 is denoted as B) | B (a compound having 3 or more and less than 10 is denoted as B) |  |  |  | 
7 | 104 | 1.1 |  |  | CCC(CC)[C@H]1C(=O)N(C)[C@H](C(=O)N(C)C)CC(=O)N(C)[C@@H](COC)C(=O)N[C@@H]([C@@H](C)CC)C(=O)N(C)CC(=O)N(C)[C@H]2C/C=C\CCN(C2=O)[C@@H](Cc2ccc(C)cc2)C(=O)N(C)CC(=O)N[C@@H](CCc2ccc(C(F)(F)F)c(OC)c2)C(=O)N2CCOC[C@H]2C(=O)NC2(CC(C)(C)C2)C(=O)N1C [PP2938] | A (a compound having 10 or more and less than 20 is denoted as A) | AA (a compound having 20 or more is denoted as AA) |  |  |  | 
8 | 3.6 |  | 0.15 |  | CCC[C@H]1C(=O)N[C@@H]([C@@H](C)CC)C(=O)N(C)CC(=O)N(C)[C@H]2C/C=C\CCN(C2=O)[C@@H](Cc2ccc(C)cc2)C(=O)N(C)CC(=O)N[C@@H](CCc2ccc(C(F)(F)F)c(OC)c2)C(=O)N2C[C@H](C)C[C@H]2C(=O)NC2(CC(C)(C)C2)C(=O)N(C)[C@@H](C2CCCC2)C(=O)N(C)[C@H](C(=O)N(C)C)CC(=O)N1C [PP1890] |  |  | B (a compound having 3 or more and less than 10 is denoted as B) | A (a compound having 10 or more and less than 20 is denoted as A) |  | 
